The values below come from article PMC8437281 (PLoS ONE, 2021).

Series [1] concerns C. difficile 630. The following applies: lowest concentration killing ≥99.9%, after 24 h incubation plated on BHI agar, 37°C, anaerobic, triplicate.
Series [2] relates to C. difficile 630. The following applies: C. difficile 630, BHI broth, 24 h, 37°C, anaerobic, OD 600 nm; triplicate.
The test system of series [3] is C. difficile 630. Briefly: microbe, parasite or virus in culture. The settings on record: Clostridioides difficile, 630, 24 h.

“And” between values parts separate entries of the source, which are not always exact repeats. Equal entries are not always repeated. Where two headings read alike, the source gives them in different places. Where no end group is shown, it is not given here.

With KWKLFKKIGAVLKVL-NH2 [CM], the “Minimum bactericidal concentration (MBC)” value with C. difficile 630 [1] was determined as 2.21 µM. The “MIC” value in the series with C. difficile 630 [2] is 2.21 µM.

Consider KWKLFKKIGAVLKVLA-NH2 [CM-A], for which the “Minimum bactericidal concentration (MBC)” value with C. difficile 630 [1] was 4.24 µM. Further, the “Reduction of viability of Caco-2 cells” value in the series with Caco-2 cells (Caco-2) was determined as 11%. Also, the “Viability of Caco-2 cells” value with Caco-2 cells (Caco-2, 33.94 µM) was determined as 40%. For the same molecule, in the series with C. difficile 630 [2], the “MIC” value stood at 1.06 µM.

Take `CN[C@H](CC(C)C)C(=O)N[C@H]1C(=O)N[C@@H](CC(N)=O)C(=O)N[C@H]2C(=O)N[C@H]3C(=O)N[C@H](C(=O)N[C@H](C(=O)O)c4cc(O)cc(O)c4-c4cc3ccc4O)[C@H](O)c3ccc(c(Cl)c3)Oc3cc2cc(c3O[C@@H]2O[C@H](CO)[C@@H](O)[C@H](O)[C@H]2O[C@H]2C[C@](C)(N)[C@H](O)[C@H](C)O2)Oc2ccc(cc2Cl)[C@H]1O` [Vancomycin]: the MIC with C. difficile 630 [3] was 0.488 µg/mL and 0.34 µM.
